Tests used:
Assay type in all cases: functional
Ancylostoma caninum [1] = test: Antiparasitic activity against Ancylostoma caninum isolate NT assessed as compound concentration required to inhibit parasitic contraction by larval arrested morphology assay
Ancylostoma caninum [2] = test: Antiparasitic activity against Ancylostoma caninum isolate PR assessed as compound concentration required to inhibit parasitic contraction by larval arrested morphology assay
Ancylostoma caninum [3] = test: Antiparasitic activity against Ancylostoma caninum isolate NT assessed as concentration of drug required to cause a force of contraction half that of the KCl-induced maximal contraction by force transduction assay
Ancylostoma caninum [4] = test: Antiparasitic activity against Ancylostoma caninum isolate PR assessed as concentration of drug required to cause a force of contraction half that of the KCl-induced maximal contraction by force transduction assay
Ancylostoma caninum [5] = test: Ratio of IC50 for Ancylostoma caninum isolate NT to IC50 for Ancylostoma caninum isolate PR by larval arrested morphology assay
Ancylostoma caninum [6] = test: Antiparasitic activity against Ancylostoma caninum isolate NT assessed as compound concentration required to inhibit parasitic contraction by larval motility assay
Ancylostoma caninum [7] = test: Antiparasitic activity against Ancylostoma caninum isolate PR assessed as compound concentration required to inhibit parasitic contraction by larval motility assay
Ancylostoma caninum [8] = test: Ratio of IC50 for Ancylostoma caninum isolate NT to IC50 for Ancylostoma caninum isolate PR by larval motility assay
Ancylostoma caninum [9] = test: Ratio of EC50 for Ancylostoma caninum isolate PR to […] by force transduction assay

Structure (SMILES)	IC50 (Ancylostoma caninum [1])	IC50 (Ancylostoma caninum [2])	EC50 (Ancylostoma caninum [3])	EC50 (Ancylostoma caninum [4])	Ratio IC50 (Ancylostoma caninum [5])	IC50 (Ancylostoma caninum [6])	IC50 (Ancylostoma caninum [7])	Ratio IC50 (Ancylostoma caninum [8])	Ratio EC50 (Ancylostoma caninum [9])
CN1CCCN=C1/C=C/c1cccs1 [PYRANTEL PAMOATE]	0.0037 µM	0.066 µM	217 µM	681 µM					
C[N+](C)(CCOc1ccccc1)Cc1ccccc1.O=C([O-])c1cc2ccccc2cc1O [BEPHENIUM HYDROXYNAPHTHOATE]	45 µM	17 µM	2880 µM	2790 µM	0.46	19 µM	8.6 µM	0.45	0.97
CN1CCCN=C1/C=C/c1cccs1.O=C(O)c1cc2ccccc2c(Cc2c(O)c(C(=O)O)cc3ccccc23)c1O [PYRANTEL PAMOATE]					18.3				3.1
CN1CCC[C@H]1c1cccnc1 [NICOTINE]	5.8 µM	6.2 µM	942 µM	1960 µM	1.07	3.7 µM	3.6 µM	0.95	2.1
Cl.c1ccc([C@H]2CN3CCSC3=N2)cc1 [LEVAMISOLE HYDROCHLORIDE]	0.0022 µM	0.017 µM	120 µM	244 µM	7.2	0.0015 µM	0.004 µM	2.7	2

— ChEMBL document CHEMBL1671630, “Phenotypic characterization of two Ancylostoma caninum isolates with different susceptibilities to the anthelmintic pyrantel” (Antimicrob Agents Chemother, 2008)
